Data from ChEMBL document CHEMBL4261543, “Integrating docking scores and key interaction profiles to improve the accuracy of molecular docking: towards novel B-RafV600E inhibitors” (Medchemcomm, 2017).

Assays:
[1] = test system: Serine/threonine-protein kinase B-raf (Homo sapiens), P15056 [V600E]; assay: Inhibition of B-Raf V600E mutant (unknown origin) at 10 uM using fluorescein-MAP2K1 as substrate after 1 hr by electrophoretic assay relative to control
[2] = target: Serine/threonine-protein kinase B-raf (Homo sapiens, UniProt P15056, V600E); assay: Inhibition of B-Raf V600E mutant (unknown origin) using fluorescein-MAP2K1 as substrate after 1 hr by electrophoretic assay
Serine/threonine-protein kinase B-raf, sequence (P15056 2-766 V600E limits assumed): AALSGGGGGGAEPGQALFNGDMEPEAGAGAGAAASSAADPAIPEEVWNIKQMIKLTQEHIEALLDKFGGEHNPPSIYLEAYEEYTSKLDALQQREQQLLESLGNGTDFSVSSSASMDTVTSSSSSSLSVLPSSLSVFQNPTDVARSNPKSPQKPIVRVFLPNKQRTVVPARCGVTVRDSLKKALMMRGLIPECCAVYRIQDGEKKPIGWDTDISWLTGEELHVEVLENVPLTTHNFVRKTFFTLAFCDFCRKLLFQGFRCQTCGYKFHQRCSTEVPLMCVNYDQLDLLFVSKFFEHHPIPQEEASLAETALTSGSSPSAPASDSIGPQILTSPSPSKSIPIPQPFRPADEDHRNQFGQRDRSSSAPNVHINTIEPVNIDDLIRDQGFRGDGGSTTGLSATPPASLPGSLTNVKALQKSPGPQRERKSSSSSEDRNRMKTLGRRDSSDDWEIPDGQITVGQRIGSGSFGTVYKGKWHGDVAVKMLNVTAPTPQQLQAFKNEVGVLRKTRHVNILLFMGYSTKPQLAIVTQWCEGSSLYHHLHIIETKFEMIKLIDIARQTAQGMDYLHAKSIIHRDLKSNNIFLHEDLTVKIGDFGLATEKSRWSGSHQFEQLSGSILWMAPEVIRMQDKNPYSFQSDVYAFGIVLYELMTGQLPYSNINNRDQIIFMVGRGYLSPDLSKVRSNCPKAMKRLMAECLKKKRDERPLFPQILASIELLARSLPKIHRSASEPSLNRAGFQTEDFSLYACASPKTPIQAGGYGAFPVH

Serine/threonine-protein kinase B-raf (Homo sapiens), P15056 [V600E], sequence (P15056 whole entry V600E): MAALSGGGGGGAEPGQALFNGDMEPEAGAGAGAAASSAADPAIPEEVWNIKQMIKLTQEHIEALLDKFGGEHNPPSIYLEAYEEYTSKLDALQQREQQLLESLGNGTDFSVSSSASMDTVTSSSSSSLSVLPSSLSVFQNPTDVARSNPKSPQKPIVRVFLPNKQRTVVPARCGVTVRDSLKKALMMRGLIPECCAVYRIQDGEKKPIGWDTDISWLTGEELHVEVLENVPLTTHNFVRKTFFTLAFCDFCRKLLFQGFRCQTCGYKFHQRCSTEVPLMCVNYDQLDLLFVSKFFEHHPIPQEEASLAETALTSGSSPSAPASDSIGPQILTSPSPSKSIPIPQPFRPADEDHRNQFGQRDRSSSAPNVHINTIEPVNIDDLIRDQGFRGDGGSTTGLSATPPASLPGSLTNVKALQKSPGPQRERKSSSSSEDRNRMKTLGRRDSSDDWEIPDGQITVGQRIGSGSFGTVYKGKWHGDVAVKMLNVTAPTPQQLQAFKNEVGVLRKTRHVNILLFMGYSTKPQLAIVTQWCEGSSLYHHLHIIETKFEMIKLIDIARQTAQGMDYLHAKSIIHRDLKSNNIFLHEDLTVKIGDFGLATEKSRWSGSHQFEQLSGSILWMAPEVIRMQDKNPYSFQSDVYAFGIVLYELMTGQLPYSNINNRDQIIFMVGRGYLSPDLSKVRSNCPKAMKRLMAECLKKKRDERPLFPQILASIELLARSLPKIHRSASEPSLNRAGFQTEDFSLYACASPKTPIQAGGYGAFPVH

| Structure (SMILES) | inhibition [1] [%] | IC50 [2] [nM] |
| --- | --- | --- |
| COCCNC(=O)c1ccc(Nc2ncc3cc(-c4ccc(F)nc4)ccc3n2)cc1 | > 40 | – |
| CCCS(=O)(=O)Nc1ccc(F)c(NC(=O)c2cccc3c(N)ncnc23)c1F | > 40 | – |
| CC(C)c1nc(-c2ccc(F)c(NS(=O)(=O)c3c(F)cccc3F)c2)c(-c2ccnc(NCCS(C)(=O)=O)n2)s1 | > 40 | – |
| CCCS(=O)(=O)Nc1ccc(F)c(C(=O)c2c[nH]c3ncc(-c4ccc(Cl)cc4)cc23)c1F | > 40 | – |
| CC(=O)N(C)c1ccc(Nc2ncc3cc(-c4ccncc4)ccc3n2)cc1 | > 40 | – |
| CCCS(=O)(=O)Nc1ccc(Cl)c(C(=O)Nc2cnc3[nH]ccc3c2)c1F | > 40 | 6.3 |
| CCCS(=O)(=O)Nc1ccc(F)c(C(=O)Nc2ccc(N)nc2)c1F | > 40 | 917 to 920 |
| CCCS(=O)(=O)Nc1ccc(F)c(-c2ccc3ccncc3n2)c1F | > 40 | – |
| C[C@@H](NC(=O)[C@H]1CCCCN1CCO)c1ccc(Nc2ncc3cc(-c4ccncc4)ccc3n2)cc1 | > 40 | – |
| Nc1ncnc2c(C(=O)Nc3c(Cl)ccc(NS(=O)(=O)CCCF)c3F)cccc12 | > 40 | – |
| CCCS(=O)(=O)Nc1ccc(F)c(C(=O)Nc2cnc3[nH]cc(Br)c3c2)c1F | > 40 | 3.4 to 4 |
| CC(C)c1nc(-c2cccc(NS(=O)(=O)c3c(F)cccc3F)c2)c(-c2ccnc(NCCS(C)(=O)=O)n2)s1 | > 40 | – |
| COCCNC(=O)c1ccc(Nc2ncc3cc(-c4ccc(OC)nc4)ccc3n2)cc1 | > 40 | – |
| COCCNC(=O)c1ccc(Nc2ncc3cc(-c4ccnc(C)c4)ccc3n2)cc1 | > 40 | – |
| CC(=O)N[C@H](C)c1ccc(Nc2ncc3cc(-c4ccncc4)c(C)cc3n2)cc1 | > 40 | – |
| CC(C)(C)c1nc(-c2cccc(NS(=O)(=O)c3c(F)cccc3F)c2F)c(-c2ccnc(N)n2)s1 | > 40 | – |
| CCCS(=O)(=O)Nc1ccc(F)c(-c2cc3cnc(N)nc3n(C)c2=O)c1F | > 40 | – |
| CCCS(=O)(=O)Nc1ccc(F)c(-c2cc3cnccc3n(CCc3ccccc3)c2=O)c1F | > 40 | – |
| CCCS(=O)(=O)Nc1ccc(F)c(C(=O)Nc2cnc3[nH]cc(OC)c3c2)c1F | > 40 | 4.8 |
| CCCS(=O)(=O)Nc1ccc(F)c(-c2cc3cncc(Br)c3cn2)c1F | > 40 | – |
| CCCS(=O)(=O)Nc1ccc(C)c(-c2ccc3nc(N)ncc3c2)c1 | > 40 | – |
| CC(C)c1nc(-c2cccc(NS(=O)(=O)c3cccc(F)c3)c2)c(-c2ccnc(NCC(N)=O)n2)s1 | > 40 | – |
| CN1CCCC1CCNC(=O)c1ccc(Nc2ncc3cc(-c4ccncc4)ccc3n2)cc1 (stereo unspecified) | > 40 | – |
| CCCS(=O)(=O)Nc1ccc(F)c(-c2cc3cnccc3cn2)c1F | > 40 | – |
| CCCS(=O)(=O)Nc1ccc(F)c(C(=O)Nc2cnc3[nH]cc(N(C)C)c3c2)c1F | > 40 | 8.2 |
| CCCS(=O)(=O)Nc1ccc(F)c(NC(=O)c2cccc3c(N)ncnc23)c1Cl | > 40 | – |

| Structure (SMILES) | inhibition [1] [%] | IC50 [2] [nM] |
| --- | --- | --- |
| CC(C)c1nc(-c2cccc(NS(=O)(=O)c3cccc(F)c3)c2)c(-c2ccnc(NCCCN(C)C)n2)s1 | > 40 | – |
| CCCS(=O)(=O)Nc1ccc(F)c(NC(=O)Nc2cc(N)ncn2)c1F | > 40 | – |
| CCCS(=O)(=O)Nc1ccc(F)c(-c2cc3cnc(NC)nc3n(C)c2=O)c1F | > 40 | – |
| CCCS(=O)(=O)Nc1ccc(F)c(-c2ccc3nc(N)ncc3c2)c1F | > 40 | – |
| c1cc(-c2ccc3nc(Nc4ccc(OCCN5CCCC5)cc4)ncc3c2)ccn1 | > 40 | – |
| CCCS(=O)(=O)Nc1ccc(Cl)c(NC(=O)c2csc3c(N)ncnc23)c1F | > 40 | – |
| COCCNC(=O)c1ccc(Nc2ncc3cc(-c4cccnc4)ccc3n2)cc1 | > 40 | – |
| CCCS(=O)(=O)Nc1ccc(F)c(-c2cc3cnc(Nc4ccccc4)nc3n(C)c2=O)c1F | > 40 | – |
| O=c1c(O)c(-c2cc(O)c(O)c(O)c2)oc2cc(O)cc(O)c12 [MYRICETIN] | – | 1560 |
| C[C@@H](NC(=O)[C@H]1CCCCN1C)c1ccc(Nc2ncc3cc(-c4ccncc4)ccc3n2)cc1 | > 40 | – |
| CCCS(=O)(=O)Nc1ccc(F)c(C(=O)Nc2cnc3[nH]cnc3c2)c1C | > 40 | 61 |
| CCCS(=O)(=O)Nc1ccc(Cl)c(C(=O)Nc2cnc3[nH]cc(OC)c3c2)c1F | > 40 | 1.7 |
| CC(=O)N[C@H](C)c1ccc(Nc2ncc3cc(-c4ccncc4)cc(Cl)c3n2)cc1 | > 40 | – |
| CC(C)c1nc(-c2ccc(F)c(NS(=O)(=O)c3c(F)cccc3F)c2)c(-c2ccnc(Nc3ccc(N4CCOCC4)nc3)n2)s1 | > 40 | – |
| CCCS(=O)(=O)Nc1ccc(F)c(NC(=O)N(C)c2cc(N)ncn2)c1F | > 40 | – |
| CC(C)c1nc(-c2cccc(NS(=O)(=O)c3c(F)cccc3F)c2)c(-c2ccnc(N)n2)s1 | > 40 | – |
| C[C@@H](NC1=CC(=O)CNC1)c1ccc(Nc2ncc3cc(-c4ccncc4)ccc3n2)cc1 | > 40 | – |
| CCCS(=O)(=O)Nc1ccc(F)c(-c2cc3cnc(NC4CCOCC4)nc3n(C)c2=O)c1F | > 40 | – |
| Nc1ncnc2c(C(=O)Nc3c(Cl)ccc(NS(=O)(=O)CCCF)c3F)csc12 | > 40 | – |
| O=C(NCCN1CCCC1)c1ccc(Nc2ncc3cc(-c4ccncc4)ccc3n2)cc1 | > 40 | – |
| COCCNC(=O)c1ccc(Nc2ncc3cc(-c4ccncc4Cl)ccc3n2)cc1 | > 40 | – |
| CCCS(=O)(=O)Nc1ccc(F)c(-c2ccc3cc(N)ncc3c2)c1F | > 40 | – |
| CCCS(=O)(=O)Nc1ccc(F)c(NC(=O)c2csc3c(N)ncnc23)c1Cl | > 40 | – |
| CCCS(=O)(=O)Nc1ccc(F)c(NC(=O)c2csc3c(N)ncnc23)c1F | > 40 | – |
| O=c1c(O)c(-c2ccc(O)c(O)c2)oc2cc(O)cc(O)c12 [QUERCETIN] | – | 7590 |
| CC(C)(C)c1nc(-c2cccc(NS(=O)(=O)c3cc(F)ccc3F)c2)c(-c2ccnc(N)n2)s1 | > 40 | – |

| Structure (SMILES) | inhibition [1] [%] | IC50 [2] [nM] |
| --- | --- | --- |
| CCCS(=O)(=O)Nc1ccc(Cl)c(NC(=O)c2cccc3c(N)ncnc23)c1F | > 40 | – |
| COCCNC(=O)c1ccc(Nc2ncc3cc(-c4ccncc4C)ccc3n2)cc1 | > 40 | – |
| CN(C)CCNC(=O)c1ccc(Nc2ncc3cc(-c4ccncc4)ccc3n2)cc1 | > 40 | – |
| CCCS(=O)(=O)Nc1ccc(F)c(NC(=O)Nc2cc(NC)ncn2)c1F | > 40 | – |
| CCCS(=O)(=O)Nc1ccc(F)c(-c2ccc3ccncc3c2)c1F | > 40 | – |
| CCCS(=O)(=O)Nc1ccc(F)c(-c2cc3cnccc3c(=O)n2C)c1F | > 40 | – |
| CCCS(=O)(=O)Nc1ccc(F)c(C(=O)Nc2cnc3[nH]ccc3c2)c1F | > 40 | 17 |
| CCCS(=O)(=O)Nc1ccc(F)c(NC(=O)Nc2ncnc3[nH]nc(OC)c23)c1F | > 40 | – |
| CC(=O)Nc1ccc(Nc2ncc3cc(-c4ccncc4)ccc3n2)cc1 | > 40 | – |
| CCCS(=O)(=O)Nc1ccc(F)c(-c2cc3cnc(Nc4cccnc4)nc3n(C)c2=O)c1F | > 40 | – |
| CCCS(=O)(=O)Nc1ccc(F)c(-c2cc3cnc(NCCO)nc3n(C)c2=O)c1F | > 40 | – |
| C[C@@H](NC(=O)C1CCNCC1)c1ccc(Nc2ncc3cc(-c4ccncc4)ccc3n2)cc1 | > 40 | – |
| COCCNC(=O)c1ccc(Nc2ncc3cc(-c4ccccc4)ccc3n2)cc1 | > 40 | – |
| CCCS(=O)(=O)Nc1ccc(F)c(NC(=O)Nc2ncnc3[nH]ncc23)c1F | > 40 | – |
| CCCS(=O)(=O)Nc1ccc(F)c(C(=O)Nc2cnc3[nH]nc(OC)c3c2)c1F | > 40 | – |
| COCCNC(=O)c1ccc(Nc2ncc3cc(-c4ccncc4)ccc3n2)cc1F | > 40 | – |
| CCCS(=O)(=O)Nc1ccc(F)c(-c2cc3cnc(NCC4CC4)nc3n(C)c2=O)c1F | > 40 | – |
| COCCNC(=O)c1ccc(Nc2ncc3cc(-c4ccncc4OC)ccc3n2)cc1 | > 40 | – |
| CCCS(=O)(=O)Nc1ccc(F)c(-c2cc3cnc(Nc4cnn(C)c4)nc3n(C)c2=O)c1F | > 40 | – |
| COCCNC(=O)c1ccc(Nc2ncc3cc(-c4cncnc4)ccc3n2)cc1 | > 40 | – |
| COCCOc1ccc(Nc2ncc3cc(-c4ccncc4)ccc3n2)cc1 | > 40 | – |
| CCCS(=O)(=O)Nc1ccc(F)c(-c2cc3cnc(NCCCO)nc3n(C)c2=O)c1F | > 40 | – |
| CCCS(=O)(=O)Nc1ccc(F)c(C(=O)Nc2cnc3[nH]ccc3c2)c1C | > 40 | 38 |
| CCCS(=O)(=O)Nc1ccc(F)c(C(=O)Nc2cnc3[nH]cc(C)c3c2)c1F | > 40 | 12 |
